Data on six compounds can be found in US20120121591A1 (priority 2009, published 2012).

For orientation: IC50 means the midpoint of a concentration-inhibition curve.

Holding throughout (assay type): cell-based
The subject of test [1] is IFN-g secretion from T cells in human whole blood. Conditions: read-out: WB (IFNg) IC50 (nM, Avg).
The subject of test [2] is IL-2 secretion from T cells in human whole blood. The following applies: read-out: WB (IL-2) IC50 (nM, Avg).
In the next test the target is hKv1.3 (Homo sapiens, UniProt P22001). In words: cell-based. Conditions: Kv1.3 (IWQ) IC50 (nM, Avg).
hKv1.3, sequence (P22001 whole entry): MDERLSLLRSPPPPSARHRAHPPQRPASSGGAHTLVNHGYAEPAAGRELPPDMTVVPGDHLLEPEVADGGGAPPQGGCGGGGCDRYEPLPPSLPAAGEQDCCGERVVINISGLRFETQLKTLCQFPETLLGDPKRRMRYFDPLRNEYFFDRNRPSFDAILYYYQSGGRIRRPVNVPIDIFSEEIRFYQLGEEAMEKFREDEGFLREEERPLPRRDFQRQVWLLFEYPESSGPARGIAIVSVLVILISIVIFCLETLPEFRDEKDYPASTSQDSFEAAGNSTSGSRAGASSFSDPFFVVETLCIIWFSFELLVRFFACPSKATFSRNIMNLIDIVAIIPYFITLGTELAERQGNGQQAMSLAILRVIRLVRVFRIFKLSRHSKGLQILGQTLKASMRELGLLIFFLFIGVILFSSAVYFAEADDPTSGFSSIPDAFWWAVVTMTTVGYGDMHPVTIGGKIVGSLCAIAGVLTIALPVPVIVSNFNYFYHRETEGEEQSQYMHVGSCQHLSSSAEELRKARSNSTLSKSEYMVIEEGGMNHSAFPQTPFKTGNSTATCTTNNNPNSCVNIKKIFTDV

For `CC[C@H](C)[C@@H]1NC(=O)[C@@H](NC(=O)[C@H](CO)NC(=O)[C@@H](N)CCCNC(=N)N)CSSC[C@@H](C(=O)O)NC(=O)[C@H]([C@@H](C)O)NC(=O)CNC(=O)[C@@H]2CSSC[C@@H]3NC(=O)[C@H](CCC(N)=O)NC(=O)[C@H](Cc4ccccc4)NC(=O)[C@H](C)NC(=O)[C@H]([C@@H](C)O)NC(=O)[C@H](CSSC[C@H](NC(=O)[C@H](Cc4ccccc4)NC(=O)[C@H](CO)NC(=O)[C@H](CC(C)C)NC(=O)[C@H](CCCNC(=N)N)NC(=O)[C@H](Cc4ccc(O)cc4)NC(=O)[C@H](CCCCN)NC(=O)[C@H](CCSC)NC(=O)[C@H](CO)NC(=O)[C@H](C)NC(=O)[C@H](CCCCN)NC3=O)C(=O)N[C@@H](CCCNC(=N)N)C(=O)N[C@@H](CCCCN)C(=O)N[C@@H]([C@@H](C)O)C(=O)N2)NC(=O)[C@H](CCCNC(=N)N)NC(=O)[C@H](CO)NC(=O)[C@H](CCCCN)NC(=O)[C@@H]2CCCN2C(=O)[C@H]([C@@H](C)CC)NC(=O)[C@H]([C@@H](C)O)NC(=O)[C@H](CC(=O)O)NC1=O` [[Ala19]ShK], the IC50 in test [1] is 0.472 nM; in test [2], 0.379 nM; on hKv1.3 it was 0.237 nM.
The corresponding values for `CC[C@H](C)[C@@H]1NC(=O)[C@@H](NC(=O)[C@H](CO)NC(=O)[C@@H](N)CCCNC(=N)N)CSSC[C@@H](C(=O)O)NC(=O)[C@H]([C@@H](C)O)NC(=O)CNC(=O)[C@@H]2CSSC[C@@H]3NC(=O)[C@H](CCC(N)=O)NC(=O)[C@H](Cc4ccccc4)NC(=O)[C@H](C)NC(=O)[C@H]([C@@H](C)O)NC(=O)[C@H](CSSC[C@H](NC(=O)[C@H](Cc4ccccc4)NC(=O)[C@H](CO)NC(=O)[C@H](CC(C)C)NC(=O)[C@H](C)NC(=O)[C@H](Cc4ccc(O)cc4)NC(=O)[C@H](CCCCN)NC(=O)[C@H](CCSC)NC(=O)[C@H](CO)NC(=O)[C@H](Cc4c[nH]cn4)NC(=O)[C@H](CCCCN)NC3=O)C(=O)N[C@@H](CCCNC(=N)N)C(=O)N[C@@H](CCCCN)C(=O)N[C@@H]([C@@H](C)O)C(=O)N2)NC(=O)[C@H](CCCNC(=N)N)NC(=O)[C@H](CO)NC(=O)[C@H](CCCCN)NC(=O)[C@@H]2CCCN2C(=O)[C@H]([C@@H](C)CC)NC(=O)[C@H]([C@@H](C)O)NC(=O)[C@H](CC(=O)O)NC1=O` [[Ala24]ShK] are 0.216 nM, 0.043 nM and 0.062 nM.
In the same order, the values of `CC[C@H](C)[C@@H]1NC(=O)[C@@H](NC(=O)[C@H](CO)NC(=O)[C@@H](N)CCCNC(=N)N)CSSC[C@@H](C(=O)O)NC(=O)[C@H]([C@@H](C)O)NC(=O)CNC(=O)[C@@H]2CSSC[C@@H]3NC(=O)[C@H](CCC(N)=O)NC(=O)[C@H](Cc4ccccc4)NC(=O)[C@H](C)NC(=O)[C@H]([C@@H](C)O)NC(=O)[C@H](CSSC[C@H](NC(=O)[C@H](Cc4ccccc4)NC(=O)[C@H](CO)NC(=O)[C@H](C)NC(=O)[C@H](CCCNC(=N)N)NC(=O)[C@H](Cc4ccc(O)cc4)NC(=O)[C@H](CCCCN)NC(=O)[C@H](CCSC)NC(=O)[C@H](CO)NC(=O)[C@H](Cc4c[nH]cn4)NC(=O)[C@H](CCCCN)NC3=O)C(=O)N[C@@H](CCCNC(=N)N)C(=O)N[C@@H](CCCCN)C(=O)N[C@@H]([C@@H](C)O)C(=O)N2)NC(=O)[C@H](CCCNC(=N)N)NC(=O)[C@H](CO)NC(=O)[C@H](CCCCN)NC(=O)[C@@H]2CCCN2C(=O)[C@H]([C@@H](C)CC)NC(=O)[C@H]([C@@H](C)O)NC(=O)[C@H](CC(=O)O)NC1=O` [[Ala25]ShK] are 0.408 nM, 0.195 nM and 0.116 nM.
In the same order, the values of `CC[C@H](C)[C@@H]1NC(=O)[C@@H](NC(=O)[C@H](CO)NC(=O)[C@@H](N)CCCNC(=N)N)CSSC[C@@H](C(=O)O)NC(=O)[C@H]([C@@H](C)O)NC(=O)CNC(=O)[C@@H]2CSSC[C@@H]3NC(=O)[C@H](CCC(N)=O)NC(=O)[C@H](Cc4ccccc4)NC(=O)[C@H](C)NC(=O)[C@H]([C@@H](C)O)NC(=O)[C@H](CSSC[C@H](NC(=O)[C@H](C)NC(=O)[C@H](CO)NC(=O)[C@H](CC(C)C)NC(=O)[C@H](CCCNC(=N)N)NC(=O)[C@H](Cc4ccc(O)cc4)NC(=O)[C@H](CCCCN)NC(=O)[C@H](CCSC)NC(=O)[C@H](CO)NC(=O)[C@H](Cc4c[nH]cn4)NC(=O)[C@H](CCCCN)NC3=O)C(=O)N[C@@H](CCCNC(=N)N)C(=O)N[C@@H](CCCCN)C(=O)N[C@@H]([C@@H](C)O)C(=O)N2)NC(=O)[C@H](CCCNC(=N)N)NC(=O)[C@H](CO)NC(=O)[C@H](CCCCN)NC(=O)[C@@H]2CCCN2C(=O)[C@H]([C@@H](C)CC)NC(=O)[C@H]([C@@H](C)O)NC(=O)[C@H](CC(=O)O)NC1=O` [[Ala27]ShK] are 8.78 nM, 1.57 nM and 0.207 nM.
In the case of `CC[C@H](C)[C@@H]1NC(=O)[C@@H](NC(=O)[C@H](CO)NC(=O)[C@@H](N)CCCNC(=N)N)CSSC[C@@H](C(=O)O)NC(=O)[C@H]([C@@H](C)O)NC(=O)CNC(=O)[C@@H]2CSSC[C@@H]3NC(=O)[C@H](CCC(N)=O)NC(=O)[C@H](Cc4ccccc4)NC(=O)[C@H](C)NC(=O)[C@H]([C@@H](C)O)NC(=O)[C@H](CSSC[C@H](NC(=O)[C@H](Cc4ccccc4)NC(=O)[C@H](CO)NC(=O)[C@H](CC(C)C)NC(=O)[C@H](CCCNC(=N)N)NC(=O)[C@H](Cc4ccc(O)cc4)NC(=O)[C@H](CCCCN)NC(=O)[C@H](CCSC)NC(=O)[C@H](CO)NC(=O)[C@H](Cc4c[nH]cn4)NC(=O)[C@H](CCCCN)NC3=O)C(=O)N[C@@H](CCCNC(=N)N)C(=O)N[C@@H](C)C(=O)N[C@@H]([C@@H](C)O)C(=O)N2)NC(=O)[C@H](CCCNC(=N)N)NC(=O)[C@H](CO)NC(=O)[C@H](CCCCN)NC(=O)[C@@H]2CCCN2C(=O)[C@H]([C@@H](C)CC)NC(=O)[C@H]([C@@H](C)O)NC(=O)[C@H](CC(=O)O)NC1=O` [[Ala30]ShK], the values for the IC50 (in test [1]; in test [2]; against hKv1.3) were 0.394 nM, 0.258 nM and 0.178 nM, respectively.
Regarding `CC[C@H](C)[C@@H]1NC(=O)[C@@H](NC(=O)[C@H](CO)NC(=O)[C@@H](N)CCCNC(=N)N)CSSC[C@@H](C(=O)O)NC(=O)[C@H]([C@@H](C)O)NC(=O)[C@H](C)NC(=O)[C@@H]2CSSC[C@@H]3NC(=O)[C@H](CCC(N)=O)NC(=O)[C@H](Cc4ccccc4)NC(=O)[C@H](C)NC(=O)[C@H]([C@@H](C)O)NC(=O)[C@H](CSSC[C@H](NC(=O)[C@H](Cc4ccccc4)NC(=O)[C@H](CO)NC(=O)[C@H](CC(C)C)NC(=O)[C@H](CCCNC(=N)N)NC(=O)[C@H](Cc4ccc(O)cc4)NC(=O)[C@H](CCCCN)NC(=O)[C@H](CCSC)NC(=O)[C@H](CO)NC(=O)[C@H](Cc4c[nH]cn4)NC(=O)[C@H](CCCCN)NC3=O)C(=O)N[C@@H](CCCNC(=N)N)C(=O)N[C@@H](CCCCN)C(=O)N[C@@H]([C@@H](C)O)C(=O)N2)NC(=O)[C@H](CCCNC(=N)N)NC(=O)[C@H](CO)NC(=O)[C@H](CCCCN)NC(=O)[C@@H]2CCCN2C(=O)[C@H]([C@@H](C)CC)NC(=O)[C@H]([C@@H](C)O)NC(=O)[C@H](CC(=O)O)NC1=O` [[Ala33]ShK], the values for the IC50 (in test [1]; in test [2]; against hKv1.3) were 0.1 nM, 0.049 nM and 0.075 nM, respectively.
